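Results reflect a 48-hour exposure of cells in 96-well plates to compound at five concentrations. At the GI50, growth is halved. TGI: concentration producing complete growth inhibition.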
Columns and labels:
Assay in all cases: growth of human tumour cells (NCI), 48 h
RPMI-8226 leukemia = tested on: RPMI-8226 leukemia
HOP-18 NSCLC = tested on: HOP-18 NSCLC
SK-MEL-5 melanoma = tested on: SK-MEL-5 melanoma
SNB-75 CNS = tested on: SNB-75 CNS
SNB-78 CNS = tested on: SNB-78 CNS
XF 498 CNS = tested on: XF 498 CNS
UO-31 renal = tested on: UO-31 renal
SF-539 CNS = tested on: SF-539 CNS
DMS 273 small cell lung = tested on: DMS 273 small cell lung
KM20L2 colon = tested on: KM20L2 colon
HOP-92 NSCLC = tested on: HOP-92 NSCLC
OVCAR-8 ovarian = tested on: OVCAR-8 ovarian
UACC-62 melanoma = tested on: UACC-62 melanoma
DMS 114 small cell lung = tested on: DMS 114 small cell lung
DLD-1 colon = tested on: DLD-1 colon
MDA-MB-231 breast = tested on: MDA-MB-231 breast
DU-145 prostate = tested on: DU-145 prostate

SMILES | TGI (RPMI-8226 leukemia) [µM] | TGI (HOP-18 NSCLC) [µM] | TGI (SK-MEL-5 melanoma) [µM] | TGI (SNB-75 CNS) [µM] | TGI (SNB-78 CNS) [µM] | TGI (XF 498 CNS) [µM] | TGI (UO-31 renal) [µM] | TGI (SF-539 CNS) [µM] | TGI (DMS 273 small cell lung) [µM] | TGI (KM20L2 colon) [µM] | TGI (HOP-92 NSCLC) [µM] | TGI (OVCAR-8 ovarian) [µM] | TGI (UACC-62 melanoma) [µM] | TGI (DMS 114 small cell lung) [µM] | TGI (DLD-1 colon) [µM] | TGI (MDA-MB-231 breast) [µM] | TGI (DU-145 prostate) [µM] | GI50 (DMS 114 small cell lung) [µM] | GI50 (KM20L2 colon) [µM] | GI50 (HOP-92 NSCLC) [µM]
COc1ccc(/C=C2\C(=O)Nc3ccccc32)cc1OC | 64 | > 100 | > 100 | 81.3 | > 100 | > 100 | > 100 | > 100 | > 100 | > 100 | > 100 | > 100 | > 100 | – | – | – | – | – | – | –
Nc1c2ccccc2nc2nccnc12 | > 100 | > 100 | > 100 | > 100 | > 100 | > 100 | > 100 | > 100 | > 100 | > 100 | > 100 | > 100 | > 100 | > 100 | > 100 | – | – | – | – | –
Nc1ccc(N=Nc2ccc(-c3ccc(N=Nc4c(S(=O)(=O)O)cc5cc(S(=O)(=O)O)c(N=Nc6ccc([N+](=O)[O-])cc6)c(N)c5c4O)cc3)cc2)c2cc(S(=O)(=O)O)ccc12 | > 100 | – | > 100 | > 100 | > 100 | > 100 | > 100 | > 100 | > 100 | > 100 | > 100 | > 100 | > 100 | – | > 100 | – | – | – | – | –
O=C1CCN(CCC(F)(F)C(F)(F)C(F)(F)C(F)(F)F)C(=S)N1 | > 100 | – | > 100 | > 100 | > 100 | > 100 | > 100 | > 100 | > 100 | > 100 | – | > 100 | > 100 | > 100 | – | – | – | – | – | –
Cc1cc2c(=O)c3ccc(Cl)cc3[nH]c2c(C(=O)O)c1C | > 100 | > 100 | > 100 | > 100 | > 100 | > 100 | > 100 | > 100 | – | > 100 | – | > 100 | > 100 | > 100 | > 100 | – | – | – | – | –
CNc1cccc(-c2cc(=O)c3cc4c(cc3[nH]2)OCO4)c1 | – | > 100 | 6.92 | – | > 100 | > 100 | > 50.8 | 0.573 | 16.9 | – | > 100 | – | > 100 | 7.84 | 0.969 | 4.52 | 8.87 | – | – | –
Cc1ccc(NCCO)cc1 | > 100 | – | > 100 | > 100 | > 100 | > 100 | > 100 | > 100 | – | > 100 | > 100 | > 100 | > 100 | > 100 | > 100 | – | – | – | – | –
COc1ccc(-c2cc(=O)c3cc4c(cc3[nH]2)OCO4)c(OC)c1 | > 100 | > 100 | 80.1 | 31.2 | > 100 | 97.9 | > 100 | > 100 | > 100 | > 100 | > 100 | > 100 | > 100 | 87.3 | > 100 | – | – | 26.1 | 42.7 | –
Brc1ccc2[nH]cc([C@@H]3CN[C@@H](c4c[nH]c5ccc(Br)cc45)CN3)c2c1 | 5.46 | – | 20.8 | 12.5 | – | – | 9.47 | 24.9 | – | – | 7.57 | 13.8 | 21.8 | – | – | 14.2 | 12.6 | – | – | –
NCCSC1(O)C(=O)c2ccccc2-c2ccccc21 (stereo not drawn) | 0.637 | – | 1.34 | 2.4 | – | – | 2.87 | 2.67 | – | – | 2.62 | 1.16 | 2.91 | – | – | 2.53 | 2.28 | – | – | 1.3
CCOC(=O)C(CC(C)C)NC(=O)C(N)Cc1ccc(N(CCCl)CCCl)cc1 (stereo not drawn) | > 64.7 | 16.1 | 19.8 | 15.9 | – | 3.87 | 5.97 | 9.59 | 13.2 | 13.5 | 11.2 | 24.9 | 9.56 | 7.54 | 8.27 | 32.3 | 47.1 | – | – | –
[N-]=[N+]=NCC(=O)c1c[nH]c(=O)[nH]c1=O | > 100 | – | > 100 | > 100 | – | – | > 100 | > 100 | – | – | > 100 | > 100 | > 100 | – | – | > 100 | > 100 | – | – | –
c1ccc(C2C3=C(c4ccccc4CC3)N3c4cc5nc6ccccc6nc5cc4NC34CCCCC24)cc1 (stereo not drawn) | > 9.17 | – | > 10 | > 10 | – | – | > 10 | > 10 | – | – | > 10 | > 10 | > 10 | – | – | > 10 | > 10 | – | – | –
N#CC(NNC(=O)Cc1ccccc1)c1ccc(O)cc1 (stereo not drawn) | > 100 | > 100 | > 100 | 97.5 | – | – | > 100 | > 100 | > 100 | – | > 100 | > 100 | > 100 | > 100 | > 100 | – | – | – | – | –
C/C(=N/NC(=S)Nc1ccccc1C)c1ccccn1 | > 55.8 | – | 2.31 | 16.3 | – | – | 15.6 | 8.15 | – | – | 17 | 9.32 | 5.99 | – | – | 14.9 | 11.3 | – | – | –
CCC1CN2CCc3cc(OC)c(OC)cc3C2CC1CC1c2cc(OC)c(OC)cc2CCN1C(=O)C(Cc1c[nH]c2ccccc12)NC(=O)OC(C)(C)C (stereo not drawn) | 6.15 | 18.7 | 3.08 | 10.8 | 40.5 | 3.19 | 7.77 | 4.43 | 19.1 | 3.8 | 7.1 | 8.58 | 14 | 3.06 | 27.4 | 3.66 | 4.75 | – | – | –
O=C(CSc1nc(-c2ccccc2)c(-c2ccccc2)[nH]1)N/N=C/c1ccc([N+](=O)[O-])cc1 | 52.1 | – | 31.1 | 47.8 | 62.5 | 28 | 29.5 | 29.9 | 27.9 | 23.2 | 29.3 | 25.4 | – | 55.8 | 38.5 | – | – | – | – | –
N[C@@H]1c2c(Br)sc(Br)c2C(=O)[C@H]1Br | 39.5 | – | > 100 | > 100 | – | – | 55.6 | > 100 | – | – | 33 | 48.4 | 59.3 | – | – | 48.5 | > 100 | – | – | –

From PubChem BioAssay (NCI)
